Some results are limits rather than exact numbers.

The assay concerns the target T1, Parkin ligase (Homo sapiens, UniProt O60260).
T1 sequence (O60260 1-465): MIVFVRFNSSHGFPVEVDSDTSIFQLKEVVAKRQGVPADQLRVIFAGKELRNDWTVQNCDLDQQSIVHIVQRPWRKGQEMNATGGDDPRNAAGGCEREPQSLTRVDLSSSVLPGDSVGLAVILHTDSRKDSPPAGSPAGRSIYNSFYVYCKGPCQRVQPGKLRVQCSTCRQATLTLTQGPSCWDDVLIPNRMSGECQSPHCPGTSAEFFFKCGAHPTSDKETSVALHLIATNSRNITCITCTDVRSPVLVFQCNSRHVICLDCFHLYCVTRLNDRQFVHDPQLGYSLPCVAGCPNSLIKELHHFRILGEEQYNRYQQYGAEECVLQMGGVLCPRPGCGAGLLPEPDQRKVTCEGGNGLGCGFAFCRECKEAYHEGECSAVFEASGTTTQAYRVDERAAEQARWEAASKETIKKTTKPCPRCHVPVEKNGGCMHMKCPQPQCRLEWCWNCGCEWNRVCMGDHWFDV
The assay can be described thus: Activity-Based Probe Assay using an Ubiquitin vinyl sulfone probe (TR-FRET). The format is biochemical. As to conditions: Parkin activation, HA-Ub-VS probe, heat activated Parkin; read-out: Probe Assay EC50 (μM) [Example 2]. Here is the method:
An Ubiquitin vinyl sulfone probe can be used that irreversibly binds to the active site cysteine of Parkin ligase. Covalent attachment of the probe to the Parkin can be monitored by TR-FRET. Candidate activator compounds can be identified by increasing the activity of Parkin ligase due to an increase in TR-FRET signal. Screening for activating compounds can be distinguished from the controls as follows: • 100% activation signal=Heat activated Parkin+100 nM control activator in DMSO. • 0% activation signal=Heat activated Parkin+DMSO only. • Parkin activators can be identified by an increase of the 0% activation signal TR-FRET signal.
• Assay Plate: White 384 well plate (Corning 3572) • Enzyme: Parkin-His tagged 203 μM (10.5 mg/ml) • Probe: Ubiquitin vinyl-sulfone (HA-Ub-VS Boston Biochem U-212) • DMSO: DMSO (Sigma cat # D4540-100ML) • Reaction Buffer: 50 mM HEPES (pH 8.5), 150 mM NaCl, 0.01% Tween 20, 0.1% BSA • Detection Buffer: 50 mM HEPES (pH 8.5), 150 mM NaCl, 0.01% Tween 20, 0.1% BSA, 800 mM KF • Detection Reagent A: 2.6 nM Anti-6HIS-Eu cryptate and 40 nM Anti-HA-XL665 in detection buffer • Eu cryptate: Anti-6HIS-Eu cryptate (CisBio 61HISKLA) • XL665: Anti-HA-XL665 (CisBio 610HAXLA) Enzyme Reaction (15 min pre incubation Parkin with activator only) • Parkin: 40 nM • HA-Ub-VS Probe: 70 nM • Activator/DMSO: 2× Activator/2% DMSO • Reaction time: 60 minutes • Temperature: 22° C. • Total volume: 10 μl reaction Detection Reaction • Take 10 μl of Enzyme Reaction above and add 10 μl detection Reagent A under the following conditions: • Reaction time: 60 minutes • Temperature: 22° C. • Total volume: 20 μl
Assay procedure (Using HP D-300 compound dispenser and Bravo for the operation): • 1) Heat activate Parkin in reaction buffer (500 μl/1.5 ml tube: Eppendorf Thermomixer 5 minutes, 400 rpm at 58° C. and put on ice until needed). • 2) Load assay plate wells with 4.8 μl 84.5 nM Parkin in reaction buffer by use of Bravo. • 3) Deliver 0.2 μl 200× activator candidates in DMSO by use of HP D-300 compound dispenser. Highest 200× concentration=[…] and then twofold dilutions. • 4) Spin 1000 rpm, 2 minutes, at room temp. • 5) Incubate plate for 15 minutes at room temp. • 6) Add 5 μl 140 nM HA-Ub-VS Probe in reaction buffer by use of Bravo. • 7) Spin 1000 rpm, 2 minutes, at room temp. • 8) Incubate plate for 60 minutes at room temp. • 9) Add 10 μl 2.6 nM Anti-6HIS-Eu cryptate and 40 nM Anti-HA-XL665 in detection buffer. • 10) Spin 1000 rpm, 2 minutes, at room temp. • 11) Incubate plate for 60 minutes at room temp. • 12) Read plates on Perkin Elmer Envision instrument with the following parameters: • LANCE dual laser protocol loaded into the Envision® software • Top Mirror: LANCE/DELFIA Duel/Bias (Bar code 446) • Emission Filter: APC 665 EM (Bar code 205) • 2nd Emission Filter: Europium 615 EM (Bar code 203) • Read 655 nm (channel 1) and 615 nm (channel 2) wavelengths on Envision®
Data Analysis: The Data can be read in CSV files. There are two tables in those CSV files, which are the values of 655 nm (channel 1) and 615 nm (channel 2) wavelengths respectively. The data is converted to an HTRF Ratio=(Channel 1/Channel 2)*10,000
The average of all the 0 uM controls (DMSO only)=BKGD (Background—0% activation). Subtract BKGD from each HTRF Ratio value=HTRF-BKGD. The average of all the […] 100 nM control activator in DMSO controls=Max (100% activation). The following equation is then used to calculate % Activation for each well/candidate as follows: % Activation=(HTRF-BKGD/Max)*100.
Graphpad Prisim was used with Transform X values: X=Log(X) and nonlinear regression (dose-response-stimulation): Log(agonist) vs Response—variable slope (four parameters) with constrains set to Bottom=0 and Top=100.
The Activity-Based Probe Assay was performed with various compounds in Tables 1-3.
On the technique in general: In TR-FRET formats the signal depends on donor and acceptor labels being close together.
Regarding `Cc1ccccc1C(=O)Nc1nc(-c2ccncc2)nn1-c1ccccc1` [Compound S2], the EC50 – broadly, the midpoint of the concentration-response curve – is more than 100 µM.

As to `Cc1ccccc1C(=O)Nc1nc(-c2ncccc2C)nn1-c1ccccc1` [Compound S3, 2-methyl-N-(3-(3-methylpyridin-2-yl)-1-phenyl-1H-1,2,4-triazol-5-yl)benzamide], the EC50 is 3 µM.

On to `Cc1ccccc1C(=O)Nc1nc(-c2cccnc2)nn1-c1ccccc1` [Compound T2], for which the EC50 was more than 100 µM.

For `O=C(/C=C/c1ccccc1)Nc1nc(NC(=O)c2ccccc2)nn1-c1ccccn1` [Compound U1], the EC50 was 25.9 µM.

For `c1ccc(-n2nc(-c3ccccn3)nc2Nc2ncnc3ccccc23)cc1` [Compound U2], the EC50 is 22 µM.

Consider `O=C(Nc1nc(NC(=O)c2cccc([N+](=O)[O-])c2)n(-c2ccccc2)n1)c1ccccc1` [Compound V1], for which the concentration for a half-maximal effect (EC50) is more than 100 µM.

Take `Cc1ccccc1C(=O)Nc1nc(C2CCOCC2)nn1-c1ccccc1` [Compound V2]: the EC50 is more than 100 µM.

On to `O=C(Nc1nc(NC(=O)c2ccco2)n(-c2ccccc2)n1)c1ccccc1` [Compound W1], for which the EC50 came out at 10.4 µM.

As for `Cc1ccccc1C(=O)Nc1nc(NC(=O)c2ccccc2C)n(C(C)C)n1` [Compound W2], the EC50 is more than 100 µM.

For the molecule `O=C(Nc1nc(NC(=O)c2ccccc2)n(-c2ccc(-c3ccccc3)cc2)n1)c1ccccc1` [Compound X1], the EC50 worked out at 62 µM.

Take `Cc1ccccc1C(=O)Nc1nc(NC(=O)c2ccccc2C)n(-c2ccccn2)n1` [Compound X2]: the EC50 is more than 100 µM.

With `O=C(Nc1nc(-c2ccccn2)nn1-c1ccccc1)c1ccccc1` [Compound Y1, N-(1-phenyl-3-(pyridin-2-yl)-1H-1,2,4-triazol-5-yl)benzamide], the EC50 is 2 µM.

For the molecule `O=C(Nc1nc(NC(=O)c2ccccc2)n(-c2ccc(OC(F)(F)F)cc2)n1)c1ccccc1` [Compound Z1], the EC50 was 1 µM.

On to `O=C(Nc1nc(NC(=O)c2ccc(I)cc2)n(-c2ccccc2)n1)c1ccc(I)cc1` [D], for which the EC50 was more than 100 µM.

As for `CN(C(=O)c1ccccc1)c1nc(NC(=O)c2ccccc2)n(-c2ccccc2)n1` [G], the EC50 is more than 100 µM.

For the molecule `O=C(Nc1nc(Nc2ncnc3ccccc23)nn1-c1ccccc1)c1ccccc1` [I], the EC50 is more than 100 µM.

For `CN(C(=O)c1ccccc1)c1nc(N(C)C(=O)c2ccccc2)n(-c2ccccc2)n1` [J], the concentration for a half-maximal effect (EC50) is more than 100 µM.

On to `Cc1ccccc1-n1nc(NC(=O)c2ccccc2)nc1NC(=O)c1ccccc1` [M], for which the EC50 was more than 100 µM.

For the molecule `O=C(Nc1nc(-c2ccccn2)nn1-c1ccccc1)c1ccccc1` [T], the EC50 was more than 100 µM.

Consider `O=C(Nc1nc(Nc2nccc3ccccc23)n(-c2ccccc2)n1)c1ccccc1` [U], for which the EC50 was more than 100 µM.

Consider `CN(C(=O)c1ccccc1)c1nc(NC(=O)c2ccccc2)nn1-c1ccccc1` [V], for which the half-maximal effective concentration (EC50) is more than 100 µM.

Turning to `CCN(CC)c1nc(Nc2nc(NC(=O)c3ccccc3)nn2-c2ccccc2)c2ccccc2n1` [W], the EC50 is more than 100 µM.

For `CCN(CC)c1nc(Nc2nc(NC(=O)c3ccccc3)nn2-c2ccccc2)nc2ccccc12` [X], the EC50 is more than 100 µM.

For `O=C(Nc1nc(Nc2ncnc3ccccc23)n(-c2ccccc2)n1)c1ccco1` [Z], the EC50 was 9.1 µM.

Values taken from US10308617B2, “Triazole benzamide derivatives and the compositions and methods of treatment regarding the same” (An2H Discovery Limited, priority 2016, dated 2019).
